Broadly, the melting point is the temperature of the solid-liquid transition. The compound `CC(C)C[C@H](NC(=O)N1CCOCC1)C(=O)N[C@@H](CCc1ccccc1)C(=O)c1oc(-c2ccccc2)nc1-c1ccccc1` [Example 5, Morpholine-4-carboxylic acid {1-(S)-[1-(S)-(2,4-diphenyloxazole-5-carbonyl)-3-phenylpropylcarbamoyl]-3-methylbutyl} amide] returned a melting point of 83 to 85 °C.

Source of the values: patent publication US6608057B2, “Compounds useful as reversible inhibitors of cathepsin S” (Boehringer Ingelheim Pharmaceuticals, Inc., priority 1999, dated 2003).
